system: NIH-3T3/Gli reporter cells (Hedgehog signal, Gli reporter luciferase; Smo inhibitory action); experiment: Gli reporter luciferase assay in NIH-3T3/Gli reporter cells stimulated with mouse Shh-N end fragment; type: cell-based; settings: NIH3T3; 1 μM compound; NIH-3T3/Gli reporter cells with mouse Shh-N end fragment culture supernatant, 48 hr; luciferase activity, control without compound as 100; read-out: inhibition rate (%) at 1 μM
Text: Inhibition of the Hedgehog signal transduction system can be measured, for example, by quantifying a decrease in the expression level of a reporter gene connected to the downstream of the Gli binding site based on the fluorescence intensity according to the following Experimental Example 1. Alternatively, it can be measured by quantifying the expression of Gli-1 mRNA in a cell extract by quantitative PCR method and the like. A compound that inhibits Hedgehog signal targets Smo, which can be confirmed, for example, by binding fluorescence-labeled Cyclopamine and a test compound to cells expressing Smo, measuring the fluorescence level of the cell, and comparing the value with that without addition of a test compound to find a decrease.
Gli reporter plasmid was constructed by inserting 8×Gli-binding site and chicken 8-crystalline promoter into the upstream of luc+ of pGL3 (Promega).
prepared in reference to the base sequence described in GenBank accession No.; X02187, and chicken genome DNA (Clontech) as a template. PCR reaction was performed using Pfu Turbo (Stratagene) and following the attached protocol. The obtained 108 bp fragment was digested with restriction enzymes BglII and HindIII, and inserted into BglII-HindIII site of pGL3 to give plasmid pGL3/δ-cry promoter.
As 8×Gli-binding site, a sequence containing eight 9-bp Gli bound consensus sequences (GACCACCCA) described in Yoon et al., J. Biol. Chem., vol. 273, pages 3496-3501 (1998) was prepared from synthetic DNA. That is, two synthetic DNAs,
were heat treated at 95° C. for 2 minutes, and incubated at 37° C. for 1 hr for annealing to give a double stranded DNA of the above-mentioned two synthetic DNAs. The obtained double stranded DNA was digested with restriction enzymes BglII and KpnI, and the obtained DNA fragment was inserted into BglII-KpnI site of pGL3/8-cry promoter to construct plasmid pGL3/8-cry promoter, 8×Gli binding site, i.e., Gli reporter plasmid. 2. Construction of plasmid for expression of mouse Shh-N end Fragment
HEK293 cells were grown in D-MEM medium (Invitrogen) containing 10% fetal bovine serum in a 10 cm dish and pcDNA3.1/mShh-N was introduced into the cells using FuGENE6 (Roche Applied Science). Thereafter, the HEK293 cells were cultured in a carbon dioxide gas incubator at 37° C. for 24 hours, and the medium was exchanged with D-MEM medium (Invitrogen) containing 2% fetal bovine serum. After culturing for 48 hr, a culture supernatant containing recombinant type mouse Shh-N end fragment was obtained by filtration using a filter ([…]).
Using D-MEM (Invitrogen) containing 10% fetal bovine serum, expression plasmid pcDNA3.1 and Gli reporter plasmid (pGL3/8-cry promoter, 8×Gli binding site) produced by the method of Experimental Example 1 were introduced into NIH-3T3 cells grown in a 10 cm dish by the use of FuGENE6 (Roche Applied Science).
After culture for 24 hr, the cells were recovered, suspended in D-MEM medium containing 10% fetal bovine serum and supplemented with Geneticin (Life Technologies Oriental, Inc.) to a final concentration of 500 μg/ml, diluted to 10^4 cells/ml, plated on a 96 well plate, and cultured in a carbon dioxide gas incubator at 37° C. to give Geneticin resistant transformed cell line.
The obtained transformed cell line was cultured in a 96 well plate, mouse Shh-N end fragment obtained in Experimental Example 3 was added, and NIH-3T3/Gli reporter cell, which is a cell line capable of induction of luciferase expression, was selected.
NIH-3T3/Gli reporter cells cultured in D-MEM (Invitrogen) containing 10% fetal bovine serum were plated in a 96 well white plate at 1×10^4 cells/well, and cultured overnight in a carbon dioxide gas incubator at 37° C. The medium was removed, a compound (50 μl) and culture supernatant of mouse Shh-N end fragment-expressing HEK293 (D-MEM medium containing 2% fetal bovine serum, 50 μl) were added, and the cells were cultured for 48 hr in a carbon dioxide gas incubator at 37° C. […]

| SMILES | inhibition at 1 µM |
| --- | --- |
| CCc1cc2c(c(OC(C)C)c(C(=O)NC3CCN(C(=O)CO)CC3)n2C)c(=O)n1-c1ccc(OC)cc1 [Example 14, 6-ethyl-N-[1-(hydroxyacetyl)piperidin-4-yl]-5-(4-methoxyphenyl)-1-methyl-3-(1-methylethoxy)-4-oxo-4,5-dihydro-1H-pyrrolo[3,2-c]pyridine-2-carboxamide] | 96% |
| CCc1cc2c(c(OCC(F)(F)F)c(C(=O)NC3CCN(C(=O)CO)CC3)n2C)c(=O)n1-c1cccc(F)c1 [Example 15, 6-ethyl-5-(3-fluorophenyl)-N-[1-(hydroxyacetyl)piperidin-4-yl]-1-methyl-4-oxo-3-(2,2,2-trifluoroethoxy)-4,5-dihydro-1H-pyrrolo[3,2-c]pyridine-2-carboxamide] | 99% |
| CCc1cc2c(c(OCC(F)(F)F)c(C(=O)NC3CCN(C(=O)CO)CC3)n2C)c(=O)n1-c1ccc(F)cc1 [Example 20, 6-ethyl-5-(4-fluorophenyl)-N-[1-(hydroxyacetyl)piperidin-4-yl]-1-methyl-4-oxo-3-(2,2,2-trifluoroethoxy)-4,5-dihydro-1H-pyrrolo[3,2-c]pyridine-2-carboxamide] | 96% |
| CCOc1c(C(=O)NC2CCN(C(=O)CO)CC2)n(C)c2cc(CC)n(-c3ccccc3)c(=O)c12 [Example 3, 3-ethoxy-6-ethyl-N-[1-(hydroxyacetyl)piperidin-4-yl]-1-methyl-4-oxo-5-phenyl-4,5-dihydro-1H-pyrrolo[3,2-c]pyridine-2-carboxamide] | 97% |
| CCc1cc2c(c(OCC(F)(F)F)c(C(=O)NC3CCN(C(=O)CO)CC3)n2C)c(=O)n1-c1ccc(OC)cc1 [Example 12, 6-ethyl-N-[1-(hydroxyacetyl)piperidin-4-yl]-5-(4-methoxyphenyl)-1-methyl-4-oxo-3-(2,2,2-trifluoroethoxy)-4,5-dihydro-1H-pyrrolo[3,2-c]pyridine-2-carboxamide] | 97% |
| CCc1cc2c(c(OC(C)C)c(C(=O)NC3CCN(C(=O)CO)CC3)n2C)c(=O)n1-c1cccc(F)c1 [Example 17, 6-ethyl-5-(3-fluorophenyl)-N-[1-(hydroxyacetyl)piperidin-4-yl]-1-methyl-3-(1-methylethoxy)-4-oxo-4,5-dihydro-1H-pyrrolo[3,2-c]pyridine-2-carboxamide] | 95% |
| CCc1cc2c(c(OCC(F)(F)F)c(C(=O)NC3CCN(C(=O)CO)CC3)n2C)c(=O)n1-c1ccc(C(F)(F)F)cc1 [Example 9, 6-ethyl-N-[1-(hydroxyacetyl)piperidin-4-yl]-1-methyl-4-oxo-3-(2,2,2-trifluoroethoxy)-5-[4-(trifluoromethyl)phenyl]-4,5-dihydro-1H-pyrrolo[3,2-c]pyridine-2-carboxamide] | 97% |
| CCc1cc2c(c(OC(C)C)c(C(=O)NC3CCN(C(=O)CO)CC3)n2C)c(=O)n1-c1ccc(F)cc1 [Example 22, 6-ethyl-5-(4-fluorophenyl)-N-[1-(hydroxyacetyl)piperidin-4-yl]-1-methyl-3-(1-methylethoxy)-4-oxo-4,5-dihydro-1H-pyrrolo[3,2-c]pyridine-2-carboxamide] | 97% |
| CCc1cc2c(c(OC(C)C)c(C(=O)NC3CCN(C(=O)CO)CC3)n2C)c(=O)n1-c1ccc(C(F)(F)F)cc1 [Example 11, 6-ethyl-N-[1-(hydroxyacetyl)piperidin-4-yl]-1-methyl-3-(1-methylethoxy)-4-oxo-5-[4-(trifluoromethyl)phenyl]-4,5-dihydro-1H-pyrrolo[3,2-c]pyridine-2-carboxamide] | 96% |
| CCOc1c(C(=O)NC2CCN(C(=O)CO)CC2)n(C)c2cc(CC)n(-c3ccc(F)cc3)c(=O)c12 [Example 21, 3-ethoxy-6-ethyl-5-(4-fluorophenyl)-N-[1-(hydroxyacetyl)piperidin-4-yl]-1-methyl-4-oxo-4,5-dihydro-1H-pyrrolo[3,2-c]pyridine-2-carboxamide] | 96% |
| CCOc1c(C(=O)NC2CCN(C(=O)CO)CC2)n(C)c2cc(CC)n(-c3ccc(OC)cc3)c(=O)c12 [Example 13, 3-ethoxy-6-ethyl-N-[1-(hydroxyacetyl)piperidin-4-yl]-5-(4-methoxyphenyl)-1-methyl-4-oxo-4,5-dihydro-1H-pyrrolo[3,2-c]pyridine-2-carboxamide] | 97% |
| CCOc1c(C(=O)NC2CCN(C(=O)CO)CC2)n(C)c2cc(CC)n(-c3cccc(F)c3)c(=O)c12 [Example 16, 3-ethoxy-6-ethyl-5-(3-fluorophenyl)-N-[1-(hydroxyacetyl)piperidin-4-yl]-1-methyl-4-oxo-4,5-dihydro-1H-pyrrolo[3,2-c]pyridine-2-carboxamide] | 96% |
| CCc1cc2c(c(OC(C)C)c(C(=O)NC3CCN(C(=O)CO)CC3)n2C)c(=O)n1-c1ccccc1 [Example 4, 6-ethyl-N-[1-(hydroxyacetyl)piperidin-4-yl]-1-methyl-3-(1-methylethoxy)-4-oxo-5-phenyl-4,5-dihydro-1H-pyrrolo[3,2-c]pyridine-2-carboxamide] | 97% |
| CCOc1c(C(=O)NC2CCN(C(=O)CO)CC2)n(C)c2cc(CC)n(-c3ccc(C(F)(F)F)cc3)c(=O)c12 [Example 10, 3-ethoxy-6-ethyl-N-[1-(hydroxyacetyl)piperidin-4-yl]-1-methyl-4-oxo-5-[4-(trifluoromethyl)phenyl]-4,5-dihydro-1H-pyrrolo[3,2-c]pyridine-2-carboxamide] | 96% |
| CCc1cc2c(c(OCC(F)(F)F)c(C(=O)NC3CCN(C(=O)CO)CC3)n2C)c(=O)n1-c1ccccc1 [Example 1, 6-ethyl-N-[1-(hydroxyacetyl)piperidin-4-yl]-1-methyl-4-oxo-5-phenyl-3-(2,2,2-trifluoroethoxy)-4,5-dihydro-1H-pyrrolo[3,2-c]pyridine-2-carboxamide] | 98% |
| Cc1ccc(-n2c(C)cc3c(c(OCC(F)(F)F)c(C(=O)NC4CCN(C(=O)CO)CC4)n3C)c2=O)cc1 [Example 8, N-[1-(hydroxyacetyl)piperidin-4-yl]-1,6-dimethyl-5-(4-methylphenyl)-4-oxo-3-(2,2,2-trifluoroethoxy)-4,5-dihydro-1H-pyrrolo[3,2-c]pyridine-2-carboxamide] | 97% |

Source: patent US8907089B2, “Fused heterocyclic ring derivative and use thereof” (Takeda Pharmaceutical Company Limited, priority 2009, dated 2014)
